Positions count from the first letter of the chain named.
Key:
TPα^S340A = biological target: T1, TPα^S340A (Homo sapiens, UniProt P21731, S340A); assay: [3H]SQ29,548 radioligand binding, Scatchard analysis, HEK.TPα^S340A
T1 construct: expressed in transfected cells
T1 sequence (P21731 1-343 S340A): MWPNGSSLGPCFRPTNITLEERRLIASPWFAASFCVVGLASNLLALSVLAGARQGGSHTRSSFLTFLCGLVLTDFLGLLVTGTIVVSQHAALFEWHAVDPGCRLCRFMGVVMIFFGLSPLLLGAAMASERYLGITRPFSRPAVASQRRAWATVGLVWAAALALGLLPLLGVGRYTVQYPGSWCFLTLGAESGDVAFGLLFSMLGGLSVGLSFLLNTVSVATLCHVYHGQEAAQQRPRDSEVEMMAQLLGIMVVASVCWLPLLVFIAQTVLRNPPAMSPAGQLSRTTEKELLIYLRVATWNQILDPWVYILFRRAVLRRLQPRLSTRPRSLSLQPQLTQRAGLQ
Description: Cells were harvested by centrifugation at 500×g at 4 °C for 5 min and washed three times with ice-cold Ca^2+/Mg^2+-free phosphate-buffered saline (PBS). TP radioligand binding assays were carried out at 30 °C for 30 min in 100 μl reactions in the presence of 0–40 nM [^3H] […] Protein determinations were carried out using the Bradford assay.
Radioligand binding and Scatchard analysis data were analysed using GraphPad Prisim V4.0 programme (GraphPad Software Inc., San Diego CA, USA). Statistical analyses were carried out using the unpaired Student's t test using the Statworks Analysis Package. p-values ≤ 0.01 indicated statistically significant differences.

TPα^T337,S340A = biological target: T2, TPα^T337,S340A (Homo sapiens, UniProt P21731, S340A/T337A); assay: Intracellular calcium mobilization, HEK.TPα^T337,S340A cells; format: cell-based
T2 construct: expressed in transfected cells
T2 sequence (P21731 1-343 T337A/S340A): T1 sequence (P21731 1-343 S340A) with T337A
Description: Measurement of intracellular calcium mobilization ([Ca^2+]i) in FURA2/AM preloaded HEK 293 cell lines (2 × 10^6 cells/dish), each transiently co-transfected with pADVA (10 μg), and pCMV:Gαq (25 μg), was carried out as previously described. To investigate the effect of GRK2/βARK1 on TP-mediated [Ca^2+]i mobilization, HEK.TPα or HEK.TPβ cells (2 × 10^6 cells/dish) were co-transfected with pADVA (10 μg), pCMV:Gαq (25 μg) along with pRK5:βARK1^495–689 (25 μg), encoding a dominant negative form of GRK2/βARK1[39]. […] For each measurement of [Ca^2+]i mobilization, aliquots of cells were diluted to 0.825 × 10^6 cells/ml in HBSSHB, 1 mM CaCl2 and FURA2 fluorescence was recorded (2 ml aliquots of cells) at 37^ °C with gentle stirring with a Perkin Elmer-Cetus LS50-B spectrofluorometer at excitation wavelengths of 340 nm and 380 nm and emission wavelength of 510 nm, respectively.
Cells were stimulated with the TP agonist U46619 (1 μM) and changes in [Ca^2+]i mobilization were monitored as a function of time. […]
The vehicle had no effect on U46619-mediated [Ca^2+]i mobilization. Calibration of the signal was performed in each sample by adding 0.2% Triton X-100 to obtain the maximal fluorescence ratio (Rmax) and then 1 mM EGTA to obtain the minimal fluorescence ratio (Rmin). […]

Bmax (pmol/mg protein ± S.E.M.) (TPα^S340A) [pmol/mg protein] | Δ[Ca2+]i, U46619-induced (TPα^T337,S340A; primary 1 μM U46619 4 min) [nM] | Δ[Ca2+]i, U46619-induced (TPα^T337,S340A; secondary 1 μM U46619 at 15 min) [nM] | Structure (SMILES)
5.3 ± 0.04 | – | – | O=C(O)CCC/C=C\C[C@@H]1[C@H](CNNC(=O)Nc2ccccc2)[C@H]2CC[C@@H]1O2 [SQ29,548]
– | 179 ± 11 | 40 ± 3.4 | CCCCC[C@H](O)/C=C/[C@@H]1[C@@H](C/C=C\CCCC(=O)O)[C@H]2CO[C@@H]1C2 [U46619]
